Data published in patent US10610507B2, “Methods for the treatment of sialorrhea” (NeuRX Pharmaceuticals LLC, priority 2012, dated 2020).

Legend:
[1] = cited from earlier work
[2] = in vitro; settings: human, liver microsomes
[3] = Human liver microsome incubation study (metabolic stability)
[4] = human liver microsome incubation

Row | half-life [2] [min] | microsomal CLint [2] [µL/min/mg] | SMILES | absolute bioavailability ([1]; administered orally) | oral bioavailability ([1]; after oral administration, pre-systemic metabolism) | inter individual variation in maximal oxybutynin plasma concentration (Cmax) ([1]; after oral administration) [fold] | inter individual variation in oxybutynin AUC ([1]; after oral administration) [fold] | increase of oxybutynin plasma levels ([1]; co-administered with ketoconazole vs without ketoconazole) | stability to metabolism by human liver microsomes relative to oxybutynin ([3]; compared with oxybutynin) [times] | Clint [3, 4] [ml/min/mg protein] | Half Life [3, 4]
1 | 5.2 | 267 | CCN(CC)CC#CCOC(=O)C(O)(c1ccccc1)C1CCCCC1 (racemic) [Oxybutynin] | about 6% | approximately 6.2% | 8 | 13 | 3-4 fold | – | – | –
2 | – | – | CCNCC#CCOC(=O)C(O)(c1ccccc1)C1CCCCC1 (stereo not shown) [N-desethyloxybutynin, 4-(ethylamino) but-2-ynyl2-cyclohexyl-2-hydroxy-2-phenylacetate] | – | – | – | – | – | 10 | 0.0218 | >60 (63.6) mins
